This passage reports IC50 results from patent US20260258025A1, “INHIBITORS OF TDP-43 AND TAU AGGREGATION” (Aquinnah Pharmaceuticals, inc., priority 2023, published 2026).

The structures appear in SMILES notation.

The test system of this assay is TDP-43 aggregation. Put plainly: TDP-43 aggregation assay in SY5Y TDP-43WT cells (high content imaging). The assay is classed as cell-based. To be noted: Homo sapiens, tetracycline induction 24 hrs, 1 hour compound pre-treatment, sodium arsenite 23 hrs, 8-point dose curve, percentage of cells with TDP-43 aggregates, read-out: IC50, Inhibition of TDP-43 Aggregation. On the procedure: Exemplary compounds disclosed herein were evaluated for efficacy in inhibiting TDP-43 inclusions cellular imaging-based assays.
The cellular model was in human neuroblastoma SH SYSY cells (ATCC, cat #: CRL-2266). The parent cell line was first engineered to stably express a tetracycline repressor protein (designated as TREx-SY5Y cells, customer cell line development by ThermoFisher). Wild-type human TDP-43 with a C-terminus eGFP tag was synthesized and cloned into pcDNA5/TO expression vector (ThermoFisher). The plasmid was transfected into TREx-SY5Y cells using Lipofectamine 2000 and hygromycin resistant colonies were selected. Expression of TDP-43WT::eGFP was examined under fluorescent microscopy and Western blot upon tetracycline induction. The clone that was used for TDP-43 aggregation assay is referred to as SY5Y TDP-43WT cells hereafter.
Compound inhibition of TDP-43 aggregation was tested in an 8-point dose curve in 96-well format. Briefly, TDP-43WT::eGFP expression was induced with […] for 24 hrs (SY5Y TDP-43WT cells). The cells were then pre-treated for 1 hour with exemplary compounds before adding sodium arsenite to a final concentration of […] and incubated for another 23 hrs. At the end of the treatment the cell monolayers were washed in PBS and fixed in 4% paraformaldehyde (PFA), diluted from 16% stock (Electron Microscopy Sciences cat: #15710-S). The inhibitory effect on TDP-43 aggregation was measured using CellInsight CX7 high content imager (ThermoFisher). The percentage of cells with TDP-43 aggregates was calculated based on the total number of cells identified by DAPI staining. An 8-point dose response curve was generated, and the IC50 for each compound tested was determined (Table 3).
In Table 3 below, A indicates an IC50 (nM)<500 nM, B indicates an IC50 (nM) 500 nM to <1000 nM, C indicates an IC50 (nM) 1000 nM to <2000 nM, D indicates an IC50 (nM) 2000 nM to <6000 nM, and E indicates an IC50 (nM) 6000 nM to ≤10000 nM.
Take `COCCN1CCC(c2ccc(-c3cc(Cl)c(C(=O)N4CC[C@H](N)C4)s3)cc2)CC1` [Compound 258, (S)-(3-aminopyrrolidin-1-yl)(3-chloro-5-(4-(1-(2-methoxyethyl)piperidin-4-yl)phenyl)thiophen-2-yl)methanone]: the IC50 is < 0.5 µM. Take `CCc1cc(-c2ccc(C3CCN(C4CCOCC4)CC3)cc2)sc1C(=O)N1CC[C@H](N)C1` [Compound 289, (S)-(3-aminopyrrolidin-1-yl)(3-ethyl-5-(4-(1-(tetrahydro-2H-pyran-4-yl)piperidin-4-yl)phenyl)thiophen-2-yl)methanone]: the IC50 was < 0.5 µM. On to `Cc1cc(-c2ccc(C3CCN(C4CCOCC4)CC3)c(OC(F)(F)F)c2)sc1C(=O)N1CC[C@H](N)C1` [Compound 261, (S)-(3-aminopyrrolidin-1-yl)(3-methyl-5-(4-(1-(tetrahydro-2H-pyran-4-yl)piperidin-4-yl)-3-(trifluoromethoxy)phenyl)thiophen-2-yl)methanone], for which the IC50 was in the range of 1 to 2 µM. With `COc1cc(C2CCN(C3CCOCC3)CC2)ccc1-c1cc(C)c(C(=O)N2CC[C@H](N)C2)s1` [Compound 259, (S)-(3-aminopyrrolidin-1-yl)(5-(2-methoxy-4-(1-(tetrahydro-2H-pyran-4-yl)piperidin-4-yl)phenyl)-3-methylthiophen-2-yl)methanone], the IC50 was in the range of 2 to 6 µM. The same measure for `Cc1cc(-c2ccc(C3CCOCC3)cc2)sc1C(=O)N1CC[C@H](N)C1` [Compound 243]: < 0.5 µM. As for `Cc1cc(-c2ccc(C3CCN(C4COC4)CC3)c(F)c2)sc1C(=O)N1CC[C@H](N)C1` [Compound 264, (S)-(3-aminopyrrolidin-1-yl)(5-(3-fluoro-4-(1-(oxetan-3-yl)piperidin-4-yl)phenyl)-3-methylthiophen-2-yl)methanone], the figure is < 0.5 µM; as for `N[C@H]1CCN(C(=O)c2sc(-c3ccc(C4CCN(C5CCOCC5)CC4)c(F)c3)cc2Cl)C1` [Compound 295, (S)-(3-aminopyrrolidin-1-yl)(3-chloro-5-(3-fluoro-4-(1-(tetrahydro-2H-pyran-4-yl)piperidin-4-yl)phenyl)thiophen-2-yl)methanone], < 0.5 µM; as for `Cc1cc(-c2ccc(C3CCN(C4CCCC4)CC3)c(F)c2)sc1C(=O)N1CC[C@H](N)C1` [Compound 278, (S)-(3-aminopyrrolidin-1-yl)(5-(4-(1-cyclopentylpiperidin-4-yl)-3-fluorophenyl)-3-methylthiophen-2-yl)methanone], < 0.5 µM.

Take `Cc1cc(-c2ccc(C3CCN(C4CCCCC4)CC3)c(F)c2)sc1C(=O)N1CC[C@H](N)C1` [Compound 277, (S)-(3-aminopyrrolidin-1-yl)(5-(4-(1-cyclohexylpiperidin-4-yl)-3-fluorophenyl)-3-methylthiophen-2-yl)methanone]: the IC50 is < 0.5 µM. Turning to `Cc1cc(-c2ccc(C3CCN(C4CCOCC4)CC3)c(F)c2)sc1C(=O)N1CC[C@H](N)C1` [Compound 296, (S)-(3-aminopyrrolidin-1-yl)(5-(3-fluoro-4-(1-(tetrahydro-2H-pyran-4-yl)piperidin-4-yl)phenyl)-3-methylthiophen-2-yl)methanone], the concentration for half-maximal inhibition (IC50) was < 0.5 µM. With `Cc1cc(-c2ccc(C3(N(C)C)CCCCC3)cc2)sc1C(=O)N1CC[C@H](N)C1` [Compound 192, (S)-(3-aminopyrrolidin-1-yl){5-[4-(1-dimethylaminocyclohexyl)phenyl]-3-methylthiophen-2-yl}methanone], the half-maximal inhibitory concentration (IC50) was in the range of 2 to 6 µM. Turning to `Cc1cc(-c2ccc3c(c2)N(C)CCC3)sc1C(=O)N1CC[C@H](N)C1` [Compound 196, (S)-(3-aminopyrrolidin-1-yl)(3-methyl-5-(1-methyl-1,2,3,4-tetrahydroquinolin-7-yl)thiophen-2-yl)methanone], the half-maximal inhibitory concentration (IC50) fell in the range of 6 to 10 µM. The same measure for `N[C@H]1CCN(C(=O)c2sc(-c3ccc(C4CCN(C5CCC5)CC4)c(F)c3)cc2Cl)C1` [Compound 271, (S)-(3-aminopyrrolidin-1-yl)(3-chloro-5-(4-(1-cyclobutylpiperidin-4-yl)-3-fluorophenyl)thiophen-2-yl)methanone]: < 0.5 µM. Consider `Cc1cc(-c2ccc(CN)cc2)sc1C(=O)N1CC[C@H](N)C1` [Compound 219], for which the IC50 is < 0.5 µM. As for `Cc1cc(-c2ccc3c(c2)NCCC3)sc1C(=O)N1CC[C@H](N)C1` [Compound 197, (S)-(3-aminopyrrolidin-1-yl)(3-methyl-5-(1,2,3,4-tetrahydroquinolin-7-yl)thiophen-2-yl)methanone], the IC50 lay in the range of 1 to 2 µM. As to `CCN1CCC(c2ccc(-c3cc(Cl)c(C(=O)N4CC[C@H](N)C4)s3)cc2F)CC1` [Compound 266, (S)-(3-aminopyrrolidin-1-yl)(3-chloro-5-(4-(1-ethylpiperidin-4-yl)-3-fluorophenyl)thiophen-2-yl)methanone], the 50% inhibitory concentration (IC50) is < 0.5 µM. Turning to `Cc1cc(-c2ccc(C(C)C)cc2)sc1C(=O)N1CC[C@H](N)C1` [Compound 230], the 50% inhibitory concentration (IC50) was in the range of 2 to 6 µM.

`CNCc1ccc(-c2cc(C)c(C(=O)N3CC[C@H](N)C3)s2)cc1` [Compound 218]: the IC50 was < 0.5 µM.

On to `Cc1cc(-c2ccc(C3CCN(C4CCNC4)CC3)cc2)sc1C(=O)N1CC[C@H](N)C1` (stereo partly drawn) [Compound 171, ((S)-3-aminopyrrolidin-1-yl)(3-methyl-5-(4-(1-(pyrrolidin-3-yl)piperidin-4-yl)phenyl)thiophen-2-yl)methanone], for which the IC50 lay within 0.5 to 1 µM.

As for `Cc1cc(-c2ccc(C3CCN(C4CSC4)CC3)cc2)sc1C(=O)N1CC[C@H](N)C1` [Compound 172, (S)-(3-aminopyrrolidin-1-yl){3-methyl-5-[4-(1-thietan-3-ylpiperidin-4-yl)phenyl]thiophen-2-yl} methanone], the IC50 is < 0.5 µM. Regarding `Cc1cc(-c2cc(Cl)cc(Cl)c2)sc1C(=O)N1CC[C@H](N)C1` [Compound 245], the IC50 was in the range of 6 to 10 µM. Consider `COc1cc(-c2ccc(C3CCN(C4CCOCC4)CC3)c(Cl)c2)sc1C(=O)N1CC[C@H](N)C1` [Compound 272, (S)-(3-aminopyrrolidin-1-yl)(5-(3-chloro-4-(1-(tetrahydro-2H-pyran-4-yl)piperidin-4-yl)phenyl)-3-methoxythiophen-2-yl)methanone], for which the 50% inhibitory concentration (IC50) was 1 to 2 µM. As to `Cc1cc(-c2ccc3c(c2)OCCC3)sc1C(=O)N1CC[C@H](N)C1` [Compound 194, (S)-(3-aminopyrrolidin-1-yl)(5-(chroman-7-yl)-3-methylthiophen-2-yl)methanone], the IC50 is 0.5 to 1 µM. Consider `Cc1cc(-c2ccc(-c3cn[nH]c3)cc2)sc1C(=O)N1CC[C@H](N)C1` [Compound 242], for which the half-inhibitory concentration (IC50) is < 0.5 µM. The same measure for `Cc1cc(-c2ccc(C3CCN(C4CN(C)C4)CC3)cc2)sc1C(=O)N1CC[C@H](N)C1` [Compound 173, (S)-(3-aminopyrrolidin-1-yl)(3-methyl-5-(4-(1-(1-methylazetidin-3-yl)piperidin-4-yl)phenyl)thiophen-2-yl)methanone]: < 0.5 µM; for `COc1cc(-c2ccc(C3CCN(C4CCOCC4)CC3)cc2)sc1C(=O)N1CC[C@H](N)C1` [Compound 293]: 0.5 to 1 µM. For the compound `Cc1cc(-c2ccc(Cl)c(Cl)c2)sc1C(=O)N1CC[C@H](N)C1` [Compound 244], the IC50 is 2 to 6 µM. As for `Cc1cc(-c2ccc(C3CCN(C4CNC4)CC3)cc2)sc1C(=O)N1CC[C@H](N)C1` [Compound 174, (S)-(3-aminopyrrolidin-1-yl)(5-(4-(1-(azetidin-3-yl)piperidin-4-yl)phenyl)-3-methylthiophen-2-yl)methanone], the figure is 1 to 2 µM.
